Measured values published in patent US7410975B2, “Small molecule toll-like receptor (TLR) antagonists” (Coley Pharmaceutical Group, Inc., priority 2003, dated 2008).
Like-named read-outs stand apart in the source and are kept apart here.

Assays:
Format in all cases: cell-based
human TLR9 (hTLR9) [1] = molecular target: T1, human TLR9 (hTLR9) (Homo sapiens, UniProt Q9NR96)
T1 construct: expressed in transfected cells
T1 sequence (Q9NR96 26-1032): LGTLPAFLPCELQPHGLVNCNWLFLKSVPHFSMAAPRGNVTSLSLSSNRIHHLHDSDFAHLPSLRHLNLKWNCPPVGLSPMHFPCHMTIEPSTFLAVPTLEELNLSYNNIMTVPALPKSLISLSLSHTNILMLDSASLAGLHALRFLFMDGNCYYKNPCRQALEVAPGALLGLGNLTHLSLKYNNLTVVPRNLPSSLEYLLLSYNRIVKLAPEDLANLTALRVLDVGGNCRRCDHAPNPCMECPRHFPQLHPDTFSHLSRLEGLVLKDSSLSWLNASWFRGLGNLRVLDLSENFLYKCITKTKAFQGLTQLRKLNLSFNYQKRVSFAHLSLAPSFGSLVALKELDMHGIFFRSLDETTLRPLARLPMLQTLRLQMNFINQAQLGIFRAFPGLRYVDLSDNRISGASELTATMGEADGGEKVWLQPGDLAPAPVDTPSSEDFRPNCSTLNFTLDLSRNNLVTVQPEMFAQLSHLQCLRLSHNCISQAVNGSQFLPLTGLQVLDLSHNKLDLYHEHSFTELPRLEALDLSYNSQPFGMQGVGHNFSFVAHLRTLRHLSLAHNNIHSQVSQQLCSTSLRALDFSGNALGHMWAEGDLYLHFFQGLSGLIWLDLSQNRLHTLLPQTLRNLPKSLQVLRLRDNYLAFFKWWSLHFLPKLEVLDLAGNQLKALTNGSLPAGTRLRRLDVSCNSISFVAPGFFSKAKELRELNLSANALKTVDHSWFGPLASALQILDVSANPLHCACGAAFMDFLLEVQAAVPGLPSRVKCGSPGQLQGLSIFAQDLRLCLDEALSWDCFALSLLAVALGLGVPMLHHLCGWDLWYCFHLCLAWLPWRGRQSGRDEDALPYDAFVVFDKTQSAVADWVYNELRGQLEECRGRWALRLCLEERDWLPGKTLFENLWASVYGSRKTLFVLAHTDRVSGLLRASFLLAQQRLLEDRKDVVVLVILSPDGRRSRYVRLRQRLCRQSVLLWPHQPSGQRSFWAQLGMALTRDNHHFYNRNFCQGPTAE
Method: Stably co-transfecting the human TLR9 receptor (hTLR9) and an NF-κB promoter-driven luciferase gene into HEK-293 cells created the cell line hTLR9-NFkB-293. hTLR9-NFkB-293 cells were counted and seeded at 1.5×10^4 cells per well in 96-well cell culture plates one day before assaying and cultured at 37° C./5% CO2. The day of the assay, antagonist was added at 50 μM, 5.0 μM or 0.5 μM. The cells were then stimulated with the EC50 dose of the TLR9 agonist, CpG-ODN 2006, and cultured for 16 h in a humidified incubator at 37° C. The culture supernatant was removed and the cells were treated with lysis buffer and stored at −80° C. before measuring luciferase activity. The luciferase readout was measured according to manufacturer's instructions using a luciferase assay system available from Promega, USA. The antagonist dose listed in Table 18 is the minimum effective dose (μM) for blockade of the TLR9 agonist. As evident from the results presented in Table 18, the minimum effective dose (μM) for blockade of the TLR9 agonist was 0.5 μM or 5 μM for all of the compounds tested, as measured by this three-point assay.

hTLR9 = molecular target: T2, hTLR9 (Homo sapiens, UniProt Q9NR96); test: hTLR9 antagonism IC50, hTLR9-NFkB-293 cells, luciferase readout, CpG-ODN 2006 (Examples 8 and 18, Tables 19 and 20); conditions: for inhibition of TLR9 signaling in vitro (in words): CpG-ODN 2006
T2 construct: expressed in transfected cells
T2 sequence (Q9NR96 26-1032): T1 sequence (Q9NR96 26-1032)
Method: (§1) hTLR9-NFkB-293 cells were counted and seeded at 1.5×10^4 cells per well in 96-well cell culture plates one day before assaying and cultured at 37° C./5% CO2, as described in Example 7. The day of the assay, antagonist was added at varying concentrations starting at 50 μM with a 1/5 to 1/6 dilution for 7 steps. The cells were then stimulated with the EC50 dose of the TLR9 agonist, CpG-ODN 2006, and cultured for 16 h in a humidified incubator at 37° C. The culture supernatant was removed and the cells were treated with lysis buffer and stored at −80° C. before measuring luciferase activity as described in Example 7. […] Results shown in Table 19 under the heading hTLR9 are the IC50 dose (μM) for blockade of a CpG ODN-generated signal in hTLR9-NFkB-293 cells.
as §1, with “20” for “19”

human TLR9 (hTLR9) [2] = molecular target: T1, human TLR9 (hTLR9); test: Antagonist screen, hTLR9-NFκB-293 cells, 6× NF-κB-luciferase reporter, with EC50 of CpG ODN 2006; conditions: compound at 0.5, 5, 50 μg/ml; EC50 concentration of CpG ODN 2006; 16 h; NF-κB-luciferase
Method: Candidate small molecules for initial screening were obtained from a commercially available library of 880 off-patent small molecules selected for structural diversity and proven bioavailability in humans (Prestwick Chemical Library). […] Results were measured as fold induction over baseline luciferase activity measured in the absence of ODN 2006 and compared to fold induction over baseline in the presence of the EC50 concentration of ODN 2006 alone. […] Additional screening was performed in like manner using additional small molecules selected from another library or specifically prepared for this purpose.
The method is described in greater detail as follows. The cells for each individual cell clone (hTLR3-NFκB-293, hTLR7-NFκB-293, hTLR8-NFκB-293 and hTLR9-NFκB-293) were counted and seeded one day before the stimulation at 1.5×10^4 cells per well in 96-well cell culture plates. To become adherent the cells were incubated after seeding overnight at 37° C. in 5% CO2 humidified air.
The screen for each compound was performed at the same time for all of the receptors TLR3, TLR7, TLR8 and TLR9. Up to fifteen test compounds, each assayed in duplicate at each of three different final concentrations (0.5 μg/ml, 5 μg/ml, and 50 μg/ml), were used for 16 h cell stimulation on a single multiwell culture plate. A 4× final concentration master plate was created to prepare the different test compounds before they were added to the cells.
Controls were added as duplicates individually for each cell clone on the cell culture plate. Positive controls were used as follows (final concentrations): 50 μg/ml poly(I:C) for hTLR3-NFκB-293; 8 μM resiquimod (R848) for hTLR7-NFκB-293; 30 μM R848 for hTLR8-NFκB-293; and 2.5 μM CpG-ODN 2006 for hTLR9-NFκB-293. Media alone was used as negative control. After addition of controls and small molecules, the cell clones were additionally stimulated with the EC50 concentration of the appropriate receptor-specific ligand.
The mean value of wells H2 and H5 (each with cells and EC50 concentration of the appropriate receptor-specific ligand) divided by the mean of wells H3 and H6 (each with cells alone) yielded the baseline response (i.e., fold induction of luciferase activity) to EC50 concentration of the appropriate receptor-specific ligand.
After 16 h stimulation the supernatant was removed and the cells treated with lysis buffer and stored at −80° C. before measuring.
For each screen result a graphical documentation was performed.
The baseline result (measured with addition of the EC50 concentration of the receptor-specific ligand) for each cell culture plate was measured as described above. Antagonistic effects were measured by down regulation compared to the baseline. Antagonists were scored as follows: • 13: compounds for which there was clear down regulation at 0.5 μg/ml, 5 μg/ml, and 50 μg/ml; • 12: compounds for which there was clear down regulation at 5 μg/ml and 50 μg/ml; • 11: compounds for which there was clear down regulation only at 50 μg/ml; • —: compounds for which there was no clear down regulation even at 50 μg/ml. Agonists

[3] = three-point assay at 50, 5.0 or 0.5 μM, EC50 dose of CpG-ODN 2006, 16 h
[4] = hTLR9-NFkB-293 cells, EC50 dose of CpG-ODN 2006, 16 h, Table 19 quinazolines, read-out: hTLR9 (IC50 dose for blockade of a CpG ODN-generated signal)
[5] = hTLR9-NFkB-293 cells, EC50 dose of CpG-ODN 2006, 16 h, Table 20 diarylmethanes, read-out: hTLR9 (IC50 dose for blockade of a CpG ODN-generated signal)

CC1(C)C=Cc2c(nc3ccccc3c2N)C1 [compound 1201, 3,3-Dimethyl-3,4-dihydro-acridin-9-ylamine]
antagonist dose (minimum effective dose for blockade of the TLR9 agonist) (human TLR9 (hTLR9) [1]; [3]): 0.5 µM

CN(C)CCOc1nc(-c2ccccc2)nc2ccccc12 [CMZ 203-45, Dimethyl-[2-(2-phenyl-quinazolin-4-yloxy)-ethyl]-amine]
IC50 (hTLR9; [4]): 29 µM

Nc1c2c(nc3ccccc13)CCC2 [compound 1061, 2,3-Dihydro-1H-cyclopenta[b]quinolin-9-ylamine]
antagonist dose (minimum effective dose for blockade of the TLR9 agonist) (human TLR9 (hTLR9) [1]; [3]): 5.0 µM

Cc1ccc2nc3nc4c(C)cccc4c(N)c3cc2c1 [compound 1595, 2,7-Dimethyl-dibenzo[b,g][1,8]naphthyridin-11-ylamine]
antagonist dose (minimum effective dose for blockade of the TLR9 agonist) (human TLR9 (hTLR9) [1]; [3]): 0.5 µM

CN(C)CCNC(c1ccccc1)c1ccc(N2CCN(C)CC2)cc1 (stereo not drawn) [CMZ 203-89]
inhibition of TLR9 signaling in vitro (in words) (hTLR9; hTLR9-NFkB-293 cells): found to inhibit TLR9 signaling
IC50 (hTLR9; [5]): 0.241 µM

CN1CCN(c2ccc(Cc3ccccc3)cc2)CC1 [CMZ 203-88-1]
IC50 (hTLR9): 12 µM
inhibition of TLR9 signaling in vitro (in words) (hTLR9; hTLR9-NFkB-293 cells): found to inhibit TLR9 signaling

Cl.Nc1c2c(nc3ccccc13)CCCC2 [compound 329, 1,2,3,4-Tetrahydro-acridin-9-ylamine Tacrine hydrochloridehydrate, reference compound]
antagonist dose (minimum effective dose for blockade of the TLR9 agonist) (human TLR9 (hTLR9) [1]): 5.0 µM

CN1CCN(c2ccc(C(c3ccccc3)N3CCN(C)CC3)cc2)CC1 (stereo not drawn) [CMZ 203-91]
inhibition of TLR9 signaling in vitro (in words) (hTLR9; hTLR9-NFkB-293 cells): found to inhibit TLR9 signaling
IC50 (hTLR9; [5]): 3.95 µM

CN1CCN(c2ccc(-c3nc(NCCN4CCOCC4)c4ccccc4n3)cc2)CC1 [CMZ 203-87]
IC50 (hTLR9; [4]): 0.02 µM

CN(C)c1cc(N)c2ccccc2n1 [1553(128), N*2*,N*2*-Dimethyl-quinoline-2,4-diamine]
antagonist dose (minimum effective dose for blockade of the TLR9 agonist) (human TLR9 (hTLR9) [1]; [3]): 0.5 µM

CN(C)CCCN1c2ccccc2CCc2ccccc21.Cl [compound 72, Imipraminehydrochloride]
hTLR9 (inhibitory effect, antagonist score) (human TLR9 (hTLR9) [2]): 13 (compounds for which there was clear down regulation at 0.5 μg/ml, 5 μg/ml, and 50 μg/ml)

COc1cc2nc(N3CCN(c4ccccc4)CC3)nc(N)c2cc1OC [CMZ 203-90]
IC50 (hTLR9; [4]): 5.43 µM

Cc1ccc2nc3c(c(N)c2c1)CCN3c1ccccc1 [1552(127), 6-Methyl-1-phenyl-2,3-dihydro-1H-pyrrolo[2,3-b]quinolin-4-ylamine]
antagonist dose (minimum effective dose for blockade of the TLR9 agonist) (human TLR9 (hTLR9) [1]; [3]): 0.5 µM

Nc1c2c(nc3ccccc13)CCCCC2 [compound 936, 7,8,9,10-Tetrahydro-6H-cyclohepta[b]quinolin-11-ylamine]
antagonist dose (minimum effective dose for blockade of the TLR9 agonist) (human TLR9 (hTLR9) [1]; [3]): 0.5 µM

CN(C)CCOC(c1ccccc1)c1ccc(N2CCN(C)CC2)cc1 (stereo not drawn) [CMZ 203-85]
inhibition of TLR9 signaling in vitro (in words) (hTLR9; hTLR9-NFkB-293 cells): found to inhibit TLR9 signaling
IC50 (hTLR9; [5]): 0.372 µM

Cc1cc(C)c2c(N)c3cc(F)ccc3nc2n1 [compound 1727, 7-Fluoro-2,4-dimethyl-benzo[b][1,8]naphthyridin-5-ylamine]
antagonist dose (minimum effective dose for blockade of the TLR9 agonist) (human TLR9 (hTLR9) [1]; [3]): 0.5 µM

CC1(C)Cc2nc3ccccc3c(N)c2C(O)C1 (stereo not drawn) [compound 1286, 9-Amino-3,3-dimethyl-1,2,3,4-tetrahydro-acridin-1-ol]
antagonist dose (minimum effective dose for blockade of the TLR9 agonist) (human TLR9 (hTLR9) [1]; [3]): 5.0 µM

CN1CCN(c2ccc(/C(=N\O)c3ccccc3)cc2)CC1 [CMZ 203-88]
inhibition of TLR9 signaling in vitro (in words) (hTLR9; hTLR9-NFkB-293 cells): found to inhibit TLR9 signaling
IC50 (hTLR9; [5]): 11.6 µM

Cc1cc(C)c2c(N)c3cccc(C)c3nc2n1 [compound 1227, 2,4,9-Trimethyl-benzo[b][1,8]naphthyridin-5-ylamine]
antagonist dose (minimum effective dose for blockade of the TLR9 agonist) (human TLR9 (hTLR9) [1]; [3]): 5.0 µM

CN1CCN(c2ccc(C(O)c3ccccc3)cc2)CC1 (stereo not drawn) [CMZ 203-84]
IC50 (hTLR9): 25.6 µM
inhibition of TLR9 signaling in vitro (in words) (hTLR9; hTLR9-NFkB-293 cells): found to inhibit TLR9 signaling

CCOc1ccc2nc3cc(NCc4ccco4)ccc3c(N)c2c1 [compound 1674, 7-Ethoxy-N*3*-furan-2-ylmethyl-acridine-3,9-diamine]
antagonist dose (minimum effective dose for blockade of the TLR9 agonist) (human TLR9 (hTLR9) [1]; [3]): 5.0 µM
